Measured values: PMC5433425 (PeerJ, 2017)
Where two headings read alike, the source gives them in different places.

Tests used:
E. coli AG100A [1] = details: EtBr […] + inhibitor 20 µM
E. coli AG100 [2] = assay: EtBr efflux by real-time fluorometry; details: AG100, AG100A and AG100tet (Fig. 2); 80 μM (20 μM for AG100A); glucose, 37 °C
Experimental: Control tubes with only cells and cells with and without 0.4% glucose were included. The fluorescence was measured in a Rotor-Gene 3000 and the data was acquired every 30 s for 30 min at 37 °C. The efflux activity was quantified by comparing the fluorescence data obtained under conditions that promote efflux (presence of glucose and absence of efflux inhibitor) with the data from the control in which the bacteria are under conditions of no efflux (presence of an inhibitor and no energy source).

E. coli AG100 [3] = assay: EtBr accumulation by real-time fluorometry; details: EtBr 1 µg/ml + inhibitor 80 µM
E. coli AG100 [4] = assay: Membrane potential assay (BacLight, DiOC2(3)); details: 80 µM
E. coli AG100tet = assay: microbe, parasite or virus in culture; assay type: cell-based, Escherichia coli; details: Escherichia coli, AG100TET
Experimental: The assays were performed in triplicate and the MIC value was given as result of at least two concordant values.

E. coli AG100A [5] = assay: microbe, parasite or virus in culture; assay type: cell-based, Escherichia coli; details: for MIC: Escherichia coli, AG100A
Experimental: The minimum inhibitory concentrations (MICs) were determined using the broth microdilution method according to the CLSI guidelines ([Clinical and Laboratory Standards Institute, 2014]). […] Two-fold serial dilutions of the compounds were made to achieve the following concentrations: 320 µM–40 µM. The MICs were determined as the lowest concentration at which no visible growth was observed after 18 h of incubation at 37 °C. The assays were performed in triplicate and the MIC value was given as result of at least two concordant values.

Structure (SMILES): CN(C)CCCN1c2ccccc2Sc2ccc(Cl)cc21 [CPZ, chlorpromazine]
- EtBr fluorescence (E. coli AG100A [1]; cycle 1): 2.607
- EtBr fluorescence (E. coli AG100A [1]; cycle 2): 3.106
- EtBr fluorescence (E. coli AG100A [1]; cycle 3): 3.464
- EtBr fluorescence (E. coli AG100A [1]; cycle 4): 4.013
- EtBr fluorescence (E. coli AG100A [1]; cycle 5): 4.508
- EtBr fluorescence (E. coli AG100A [1]; cycle 6): 5.005
- EtBr fluorescence (E. coli AG100A [1]; cycle 7): 5.439
- EtBr fluorescence (E. coli AG100A [1]; cycle 8): 6.027
- EtBr fluorescence (E. coli AG100A [1]; cycle 9): 6.585
- EtBr fluorescence (E. coli AG100A [1]; cycle 10): 7.2591
- EtBr fluorescence (E. coli AG100A [1]; cycle 11): 7.711
- EtBr fluorescence (E. coli AG100A [1]; cycle 12): 8.1901
- EtBr fluorescence (E. coli AG100A [1]; cycle 13): 9.033
- EtBr fluorescence (E. coli AG100A [1]; cycle 14): 9.4255
- EtBr fluorescence (E. coli AG100A [1]; cycle 15): 10.1045
- EtBr fluorescence (E. coli AG100A [1]; cycle 16): 10.9436
- EtBr fluorescence (E. coli AG100A [1]; cycle 17): 11.4479
- EtBr fluorescence (E. coli AG100A [1]; cycle 18): 12.2134
- EtBr fluorescence (E. coli AG100A [1]; cycle 19): 12.6889
- EtBr fluorescence (E. coli AG100A [1]; cycle 20): 13.2115
- EtBr fluorescence (E. coli AG100A [1]; cycle 21): 13.9156
- EtBr fluorescence (E. coli AG100A [1]; cycle 22): 14.6607
- EtBr fluorescence (E. coli AG100A [1]; cycle 23): 15.4189
- EtBr fluorescence (E. coli AG100A [1]; cycle 24): 16.1017
- EtBr fluorescence (E. coli AG100A [1]; cycle 25): 16.6199
- EtBr fluorescence (E. coli AG100A [1]; cycle 26): 17.3366
- EtBr fluorescence (E. coli AG100A [1]; cycle 27): 18.2879
- EtBr fluorescence (E. coli AG100A [1]; cycle 28): 18.7671
- EtBr fluorescence (E. coli AG100A [1]; cycle 29): 19.416
- EtBr fluorescence (E. coli AG100A [1]; cycle 30): 19.8456
- inhibition of EtBr efflux (E. coli AG100 [2]): inhibited
- EtBr fluorescence (E. coli AG100 [3]; cycle 1): 6.13
- EtBr fluorescence (E. coli AG100 [3]; cycle 2): 8.192
- EtBr fluorescence (E. coli AG100 [3]; cycle 3): 10.0781
- EtBr fluorescence (E. coli AG100 [3]; cycle 4): 12.1665
- EtBr fluorescence (E. coli AG100 [3]; cycle 5): 14.1022
- EtBr fluorescence (E. coli AG100 [3]; cycle 6): 16.1694
- EtBr fluorescence (E. coli AG100 [3]; cycle 7): 18.3713
- EtBr fluorescence (E. coli AG100 [3]; cycle 8): 20.6676
- EtBr fluorescence (E. coli AG100 [3]; cycle 9): 22.7314
- EtBr fluorescence (E. coli AG100 [3]; cycle 10): 24.8681
- EtBr fluorescence (E. coli AG100 [3]; cycle 11): 27.4474
- EtBr fluorescence (E. coli AG100 [3]; cycle 12): 29.5933
- EtBr fluorescence (E. coli AG100 [3]; cycle 13): 31.7973
- EtBr fluorescence (E. coli AG100 [3]; cycle 14): 34.5154
- EtBr fluorescence (E. coli AG100 [3]; cycle 15): 36.8928
- EtBr fluorescence (E. coli AG100 [3]; cycle 16): 39.2786
- EtBr fluorescence (E. coli AG100 [3]; cycle 17): 41.9426
- EtBr fluorescence (E. coli AG100 [3]; cycle 18): 44.0663
- EtBr fluorescence (E. coli AG100 [3]; cycle 19): 46.4485
- EtBr fluorescence (E. coli AG100 [3]; cycle 20): 49.5818
- EtBr fluorescence (E. coli AG100 [3]; cycle 21): 51.5786
- EtBr fluorescence (E. coli AG100 [3]; cycle 22): 54.5618
- EtBr fluorescence (E. coli AG100 [3]; cycle 23): 56.7461
- EtBr fluorescence (E. coli AG100 [3]; cycle 24): 59.3586
- EtBr fluorescence (E. coli AG100 [3]; cycle 25): 62.2682
- EtBr fluorescence (E. coli AG100 [3]; cycle 26): 64.3897
- EtBr fluorescence (E. coli AG100 [3]; cycle 27): 67.0371
- EtBr fluorescence (E. coli AG100 [3]; cycle 28): 69.6952
- EtBr fluorescence (E. coli AG100 [3]; cycle 29): 72.3896
- EtBr fluorescence (E. coli AG100 [3]; cycle 30): 75.3315
- membrane depolarization (E. coli AG100 [4]): similarly to that caused by PQQ4R
- MIC (E. coli AG100tet; read-out: MIC of EtBr in presence of the efflux inhibitor, AG100tet, inhibitor 40 μM): 256 µg/mL
- MIC (E. coli AG100tet; read-out: MIC of EtBr in presence of the efflux inhibitor, AG100tet, inhibitor 80 μM): 128 µg/mL
- MIC (E. coli AG100tet; read-out: MIC of EtBr in presence of the efflux inhibitor, AG100tet, inhibitor 160 μM): 128 µg/mL
- MIC (E. coli AG100tet; read-out: MIC of OFX in presence of the efflux inhibitor, AG100tet, inhibitor 40 μM): 0.5 µg/mL
- MIC (E. coli AG100tet; read-out: MIC of OFX in presence of the efflux inhibitor, AG100tet, inhibitor 80 μM): 0.5 µg/mL
- MIC (E. coli AG100tet; read-out: MIC of OFX in presence of the efflux inhibitor, AG100tet, inhibitor 160 μM): 0.25 µg/mL
- MIC (E. coli AG100tet; read-out: MIC of OXA in presence of the efflux inhibitor, AG100tet, inhibitor 40 μM): > 2050 µg/mL
- MIC (E. coli AG100tet; read-out: MIC of OXA in presence of the efflux inhibitor, AG100tet, inhibitor 80 μM): 2050 µg/mL
- MIC (E. coli AG100tet; read-out: MIC of OXA in presence of the efflux inhibitor, AG100tet, inhibitor 160 μM): 1020 µg/mL
- MIC (E. coli AG100tet; read-out: MIC of TET in presence of the efflux inhibitor, AG100tet, inhibitor 40 μM): 32 µg/mL
- MIC (E. coli AG100tet; read-out: MIC of TET in presence of the efflux inhibitor, AG100tet, inhibitor 80 μM): 32 µg/mL
- MIC (E. coli AG100tet; read-out: MIC of TET in presence of the efflux inhibitor, AG100tet, inhibitor 160 μM): 16 µg/mL
- reduction in TET MIC (E. coli AG100A [5]; AG100A (pump-deficient strain)): 4 fold
- MIC (E. coli AG100A [5]; read-out: MIC of EtBr in presence of the efflux inhibitor): 0.39 µg/mL
- MIC (E. coli AG100A [5]; read-out: MIC of OFX in presence of the efflux inhibitor): 0.015 µg/mL
- MIC (E. coli AG100A [5]; read-out: MIC of OXA in presence of the efflux inhibitor): 2 µg/mL
- MIC (E. coli AG100A [5]; read-out: MIC of TET in presence of the efflux inhibitor): 0.125 µg/mL
